We go through three compounds from the kinase profiling compilation of Christmann-Franck et al. (2016).

Chain of AXL (human) (P30530 whole entry, looked up): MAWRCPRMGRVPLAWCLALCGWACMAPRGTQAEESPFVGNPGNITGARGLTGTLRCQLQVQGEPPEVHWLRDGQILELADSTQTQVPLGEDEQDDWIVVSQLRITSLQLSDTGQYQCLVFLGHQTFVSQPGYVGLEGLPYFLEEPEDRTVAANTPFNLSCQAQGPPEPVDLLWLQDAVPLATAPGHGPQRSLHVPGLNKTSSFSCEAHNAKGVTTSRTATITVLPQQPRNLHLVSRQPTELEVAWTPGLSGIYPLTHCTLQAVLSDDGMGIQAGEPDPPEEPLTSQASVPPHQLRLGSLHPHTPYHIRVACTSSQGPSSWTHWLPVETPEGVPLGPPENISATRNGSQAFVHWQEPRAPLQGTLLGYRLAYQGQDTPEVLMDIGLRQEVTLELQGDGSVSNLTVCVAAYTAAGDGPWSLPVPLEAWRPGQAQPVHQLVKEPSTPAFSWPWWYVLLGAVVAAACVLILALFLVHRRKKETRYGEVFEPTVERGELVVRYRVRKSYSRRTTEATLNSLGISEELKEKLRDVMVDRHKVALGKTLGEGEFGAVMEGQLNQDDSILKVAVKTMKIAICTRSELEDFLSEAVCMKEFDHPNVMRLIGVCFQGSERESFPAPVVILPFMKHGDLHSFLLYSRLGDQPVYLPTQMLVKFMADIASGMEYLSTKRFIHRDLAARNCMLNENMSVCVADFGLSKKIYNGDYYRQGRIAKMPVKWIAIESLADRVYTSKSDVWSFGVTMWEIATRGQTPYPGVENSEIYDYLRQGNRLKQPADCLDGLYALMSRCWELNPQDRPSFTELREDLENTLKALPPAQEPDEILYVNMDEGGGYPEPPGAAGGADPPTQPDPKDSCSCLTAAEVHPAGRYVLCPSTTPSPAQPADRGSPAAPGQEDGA

One assay addresses NUAK2 (human) (UniProt Q9H093). As to the kind of experiment: radiometric filter-binding kinase assay, Kinase HotSpot. The settings on record: compound 0.5 µM; ATP 10 µM.
`Oc1ccc(Nc2nc(-c3ccc(Cl)cc3)cs2)cc1`: the residual activity (in general, the signal under treatment as a percentage of the control signal) came out at 137%.
As for `O=C1Nc2ccccc2/C1=C1/Nc2ccccc2/C1=N\OCCC(O)CO` (stereo not drawn), the residual activity was determined as 55.1%.
On the same count and under the same terms, then `Nc1nnc2[nH]c3ccccc3nc1-2`, with 96.3%.

The target in the next assay is GRK5 (human) (UniProt P34947). The assay is described as above. As to conditions: compound 0.5 µM; ATP 10 µM.
In the case of `Oc1ccc(Nc2nc(-c3ccc(Cl)cc3)cs2)cc1`, the residual activity was found to be 92%.
The same measure, in the same setting: then `O=C1Nc2ccccc2/C1=C1/Nc2ccccc2/C1=N\OCCC(O)CO` (stereo not drawn), with 84.6%; and `Nc1nnc2[nH]c3ccccc3nc1-2`, with 101%.

For the next assay, the target named is SRPK3 (human) (UniProt Q9UPE1). Described as above. As to conditions: compound 0.5 µM; ATP 10 µM.
Chain of SRPK3 (human) (Q9UPE1 whole entry, looked up): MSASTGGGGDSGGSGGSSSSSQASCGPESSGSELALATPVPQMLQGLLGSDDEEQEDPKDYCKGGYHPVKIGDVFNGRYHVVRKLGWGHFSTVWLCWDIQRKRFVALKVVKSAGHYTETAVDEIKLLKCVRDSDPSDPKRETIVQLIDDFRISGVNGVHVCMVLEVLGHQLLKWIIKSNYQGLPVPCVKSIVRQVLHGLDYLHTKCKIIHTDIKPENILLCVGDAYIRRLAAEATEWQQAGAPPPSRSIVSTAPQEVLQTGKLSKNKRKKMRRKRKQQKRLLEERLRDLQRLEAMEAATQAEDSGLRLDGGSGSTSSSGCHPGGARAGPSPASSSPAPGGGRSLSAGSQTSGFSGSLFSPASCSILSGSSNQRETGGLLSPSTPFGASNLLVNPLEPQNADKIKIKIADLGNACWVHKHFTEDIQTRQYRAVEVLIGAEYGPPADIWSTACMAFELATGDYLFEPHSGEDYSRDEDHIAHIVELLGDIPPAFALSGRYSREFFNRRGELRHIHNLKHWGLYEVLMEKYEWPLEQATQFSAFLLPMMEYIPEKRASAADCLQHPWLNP
With `Oc1ccc(Nc2nc(-c3ccc(Cl)cc3)cs2)cc1`, the residual activity worked out at 98.1%.
Same read-out and setting: under `O=C1Nc2ccccc2/C1=C1/Nc2ccccc2/C1=N\OCCC(O)CO` (stereo not drawn) stands 59.5%; under `Nc1nnc2[nH]c3ccccc3nc1-2`, 95.6%.

Another assay addresses NEK4 (human) (UniProt P51957). The description is as above. As to conditions: compound 0.5 µM; ATP 10 µM.
Turning to `Oc1ccc(Nc2nc(-c3ccc(Cl)cc3)cs2)cc1`, the residual activity was found to be 104%.
On the same count and under the same terms, under `O=C1Nc2ccccc2/C1=C1/Nc2ccccc2/C1=N\OCCC(O)CO` (stereo not drawn) stands 83.9%.
Still for that read-out and setting: under `Nc1nnc2[nH]c3ccccc3nc1-2` stands 97.8%.

The target in a further assay is LCK (human) (UniProt P06239). The assay is described as above. The settings on record: compound 0.5 µM; ATP 10 µM.
As for `Oc1ccc(Nc2nc(-c3ccc(Cl)cc3)cs2)cc1`, the residual activity came out at 99.8%.
The same measure, in the same setting: under `O=C1Nc2ccccc2/C1=C1/Nc2ccccc2/C1=N\OCCC(O)CO` (stereo not drawn) stands 29.7%.
Turning to `Nc1nnc2[nH]c3ccccc3nc1-2`, the residual activity turned out to be 93.6%.

Another assay concerns the target AXL (human) (UniProt P30530). The assay is described as above. The settings on record: compound 0.5 µM; ATP 10 µM.
As to `Oc1ccc(Nc2nc(-c3ccc(Cl)cc3)cs2)cc1`, the residual activity worked out at 98.5%.
The same measure, in the same setting: then `O=C1Nc2ccccc2/C1=C1/Nc2ccccc2/C1=N\OCCC(O)CO` (stereo not drawn), with 42.7%; and `Nc1nnc2[nH]c3ccccc3nc1-2`, with 91.3%.

Another assay deals with NTRK3 (human) (UniProt Q16288). The assay is described as above. As to conditions: compound 0.5 µM; ATP 10 µM.
Consider `Oc1ccc(Nc2nc(-c3ccc(Cl)cc3)cs2)cc1`, for which the residual activity came out at 102%.
Same read-out and setting: then `O=C1Nc2ccccc2/C1=C1/Nc2ccccc2/C1=N\OCCC(O)CO` (stereo not drawn), with 1.01%; and `Nc1nnc2[nH]c3ccccc3nc1-2`, with 92.1%.

The target in a further assay is RPS6KB1 (human) (UniProt P23443). The assay is described as above. The settings on record: compound 0.5 µM; ATP 10 µM.
Chain of RPS6KB1 (human) (P23443 whole entry, looked up): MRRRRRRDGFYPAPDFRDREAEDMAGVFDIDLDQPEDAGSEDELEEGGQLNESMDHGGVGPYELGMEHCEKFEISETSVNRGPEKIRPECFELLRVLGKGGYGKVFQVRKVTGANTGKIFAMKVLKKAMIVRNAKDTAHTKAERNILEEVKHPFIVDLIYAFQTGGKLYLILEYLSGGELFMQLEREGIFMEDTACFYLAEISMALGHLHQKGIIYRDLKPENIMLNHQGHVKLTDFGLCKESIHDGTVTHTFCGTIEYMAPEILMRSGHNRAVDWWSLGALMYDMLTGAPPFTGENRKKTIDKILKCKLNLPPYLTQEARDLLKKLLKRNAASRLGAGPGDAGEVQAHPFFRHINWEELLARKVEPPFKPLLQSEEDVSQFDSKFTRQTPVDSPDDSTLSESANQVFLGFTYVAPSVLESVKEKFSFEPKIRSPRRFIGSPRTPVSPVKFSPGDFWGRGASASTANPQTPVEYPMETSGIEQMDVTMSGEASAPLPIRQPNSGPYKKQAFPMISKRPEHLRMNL
Regarding `Oc1ccc(Nc2nc(-c3ccc(Cl)cc3)cs2)cc1`, the residual activity worked out at 104%.
Same read-out and setting: under `O=C1Nc2ccccc2/C1=C1/Nc2ccccc2/C1=N\OCCC(O)CO` (stereo not drawn) stands 47.8%.
The same measure, in the same setting: then `Nc1nnc2[nH]c3ccccc3nc1-2`, with 99.8%.

A further assay addresses CSNK1E (human) (UniProt P49674). Described as above. As to conditions: compound 0.5 µM; ATP 10 µM.
Consider `Oc1ccc(Nc2nc(-c3ccc(Cl)cc3)cs2)cc1`, for which the residual activity came out at 103%.
Consider `O=C1Nc2ccccc2/C1=C1/Nc2ccccc2/C1=N\OCCC(O)CO` (stereo not drawn), for which the residual activity amounted to 43.2%.
Same read-out and setting: then `Nc1nnc2[nH]c3ccccc3nc1-2`, with 90.2%.

The next assay addresses MAPK3 (human) (UniProt P27361). Described as above. The settings on record: compound 0.5 µM; ATP 10 µM.
Consider `Oc1ccc(Nc2nc(-c3ccc(Cl)cc3)cs2)cc1`, for which the residual activity was determined as 103%.
The same measure, in the same setting: then `O=C1Nc2ccccc2/C1=C1/Nc2ccccc2/C1=N\OCCC(O)CO` (stereo not drawn), with 98.7%; and `Nc1nnc2[nH]c3ccccc3nc1-2`, with 113%.

The target of a further assay is MAP2K2 (human) (UniProt P36507). The assay is described as above. As to conditions: compound 0.5 µM; ATP 10 µM.
Chain of MAP2K2 (human) (P36507 whole entry, looked up): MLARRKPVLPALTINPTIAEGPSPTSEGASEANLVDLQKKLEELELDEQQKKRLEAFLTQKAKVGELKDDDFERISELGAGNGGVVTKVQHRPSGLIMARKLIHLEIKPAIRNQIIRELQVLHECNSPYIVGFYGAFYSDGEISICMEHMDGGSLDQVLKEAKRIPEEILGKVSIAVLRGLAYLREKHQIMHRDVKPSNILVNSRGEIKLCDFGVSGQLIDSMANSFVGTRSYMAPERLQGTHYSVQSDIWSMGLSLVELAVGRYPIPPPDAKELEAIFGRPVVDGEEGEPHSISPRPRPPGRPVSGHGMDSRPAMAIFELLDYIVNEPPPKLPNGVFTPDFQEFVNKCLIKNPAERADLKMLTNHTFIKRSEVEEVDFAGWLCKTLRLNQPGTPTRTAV
As to `Oc1ccc(Nc2nc(-c3ccc(Cl)cc3)cs2)cc1`, the residual activity is 109%.
On the same count and under the same terms, under `O=C1Nc2ccccc2/C1=C1/Nc2ccccc2/C1=N\OCCC(O)CO` (stereo not drawn) stands 86.5%; under `Nc1nnc2[nH]c3ccccc3nc1-2`, 104%.

The target of a further assay is SRPK2 (human) (UniProt P78362). The assay is described as above. As to conditions: compound 0.5 µM; ATP 10 µM.
Take `Oc1ccc(Nc2nc(-c3ccc(Cl)cc3)cs2)cc1`: the residual activity was 104%.
Still for that read-out and setting: under `O=C1Nc2ccccc2/C1=C1/Nc2ccccc2/C1=N\OCCC(O)CO` (stereo not drawn) stands 86.5%; under `Nc1nnc2[nH]c3ccccc3nc1-2`, 95.9%.

A further assay deals with PRKCZ (human) (UniProt Q05513). Described as above. As to conditions: compound 0.5 µM; ATP 10 µM.
Chain of PRKCZ (human) (Q05513 whole entry, looked up): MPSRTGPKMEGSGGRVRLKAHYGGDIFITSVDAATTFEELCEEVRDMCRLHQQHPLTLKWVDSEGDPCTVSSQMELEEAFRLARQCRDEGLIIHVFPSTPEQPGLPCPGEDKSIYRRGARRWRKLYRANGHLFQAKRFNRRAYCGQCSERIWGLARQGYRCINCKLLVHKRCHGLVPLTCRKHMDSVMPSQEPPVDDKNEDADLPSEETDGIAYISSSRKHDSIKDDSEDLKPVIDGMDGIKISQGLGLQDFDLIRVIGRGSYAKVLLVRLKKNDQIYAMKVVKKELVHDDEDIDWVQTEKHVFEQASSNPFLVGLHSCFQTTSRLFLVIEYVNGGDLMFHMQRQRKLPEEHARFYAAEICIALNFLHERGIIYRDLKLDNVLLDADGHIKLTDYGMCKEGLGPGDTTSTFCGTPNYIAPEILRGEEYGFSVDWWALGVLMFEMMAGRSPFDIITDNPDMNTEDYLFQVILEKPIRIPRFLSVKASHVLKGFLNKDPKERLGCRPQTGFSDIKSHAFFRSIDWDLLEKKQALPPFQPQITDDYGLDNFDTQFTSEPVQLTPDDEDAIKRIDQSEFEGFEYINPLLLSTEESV
`Oc1ccc(Nc2nc(-c3ccc(Cl)cc3)cs2)cc1`: the residual activity is 105%.
Same read-out and setting: then `O=C1Nc2ccccc2/C1=C1/Nc2ccccc2/C1=N\OCCC(O)CO` (stereo not drawn), with 98.5%; and `Nc1nnc2[nH]c3ccccc3nc1-2`, with 106%.

A further assay has as its target NUAK1 (human) (UniProt O60285). Described as above. The settings on record: compound 0.5 µM; ATP 10 µM.
For the compound `Oc1ccc(Nc2nc(-c3ccc(Cl)cc3)cs2)cc1`, the residual activity was 90.7%.
In the case of `O=C1Nc2ccccc2/C1=C1/Nc2ccccc2/C1=N\OCCC(O)CO` (stereo not drawn), the residual activity amounted to 2.81%.
The same measure, in the same setting: then `Nc1nnc2[nH]c3ccccc3nc1-2`, with 86.3%.

For another assay, the target named is MAPK8 (human) (UniProt P45983). The assay is described as above. As to conditions: compound 0.5 µM; ATP 10 µM.
With `Oc1ccc(Nc2nc(-c3ccc(Cl)cc3)cs2)cc1`, the residual activity was 100%.
On the same count and under the same terms, under `O=C1Nc2ccccc2/C1=C1/Nc2ccccc2/C1=N\OCCC(O)CO` (stereo not drawn) stands 101%; under `Nc1nnc2[nH]c3ccccc3nc1-2`, 89.6%.

The target of another assay is CDK7 CCNH MNAT1 (human) (UniProt P50613+P51948+P51946). The assay is described as above. As to conditions: compound 0.5 µM; ATP 10 µM.
Chain of CDK7 CCNH MNAT1 (human) (P50613 whole entry, looked up): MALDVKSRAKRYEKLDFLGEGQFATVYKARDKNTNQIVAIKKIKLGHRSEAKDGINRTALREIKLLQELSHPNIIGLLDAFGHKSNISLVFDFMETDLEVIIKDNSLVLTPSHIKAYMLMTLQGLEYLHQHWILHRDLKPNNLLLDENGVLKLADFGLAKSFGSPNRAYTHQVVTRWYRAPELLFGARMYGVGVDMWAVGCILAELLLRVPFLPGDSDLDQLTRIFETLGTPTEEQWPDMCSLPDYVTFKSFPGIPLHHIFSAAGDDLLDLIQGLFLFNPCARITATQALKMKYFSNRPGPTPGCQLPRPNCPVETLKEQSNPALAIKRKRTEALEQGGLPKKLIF
Chain of CDK7 CCNH MNAT1 (human) (P51946 whole entry, looked up): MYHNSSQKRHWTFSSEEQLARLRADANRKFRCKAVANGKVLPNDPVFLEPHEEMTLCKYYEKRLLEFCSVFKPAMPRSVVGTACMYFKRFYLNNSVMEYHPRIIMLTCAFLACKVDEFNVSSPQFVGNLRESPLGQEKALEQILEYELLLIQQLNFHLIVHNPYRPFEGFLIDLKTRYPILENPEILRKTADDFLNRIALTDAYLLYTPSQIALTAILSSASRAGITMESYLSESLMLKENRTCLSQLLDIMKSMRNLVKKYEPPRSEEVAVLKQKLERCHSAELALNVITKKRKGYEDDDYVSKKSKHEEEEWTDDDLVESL
Chain of CDK7 CCNH MNAT1 (human) (P51948 whole entry, looked up): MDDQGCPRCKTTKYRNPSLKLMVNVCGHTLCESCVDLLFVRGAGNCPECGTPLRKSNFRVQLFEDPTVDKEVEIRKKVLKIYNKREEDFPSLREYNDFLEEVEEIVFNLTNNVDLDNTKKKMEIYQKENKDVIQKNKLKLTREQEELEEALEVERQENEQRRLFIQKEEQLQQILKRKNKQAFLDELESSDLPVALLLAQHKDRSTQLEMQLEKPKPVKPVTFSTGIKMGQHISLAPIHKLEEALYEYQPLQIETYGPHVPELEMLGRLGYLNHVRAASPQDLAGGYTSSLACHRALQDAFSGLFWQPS
On to `Oc1ccc(Nc2nc(-c3ccc(Cl)cc3)cs2)cc1`, for which the residual activity turned out to be 96.3%.
The same measure, in the same setting: under `O=C1Nc2ccccc2/C1=C1/Nc2ccccc2/C1=N\OCCC(O)CO` (stereo not drawn) stands 77.9%; under `Nc1nnc2[nH]c3ccccc3nc1-2`, 98%.

The target of the next assay is CSK (human) (UniProt P41240). Described as above. As to conditions: compound 0.5 µM; ATP 10 µM.
Consider `Oc1ccc(Nc2nc(-c3ccc(Cl)cc3)cs2)cc1`, for which the residual activity was found to be 101%.
As for `O=C1Nc2ccccc2/C1=C1/Nc2ccccc2/C1=N\OCCC(O)CO` (stereo not drawn), the residual activity was determined as 86.3%.
Still for that read-out and setting: under `Nc1nnc2[nH]c3ccccc3nc1-2` stands 100%.

The target in another assay is MAPKAPK3 (human) (UniProt Q16644). The description is as above. As to conditions: compound 0.5 µM; ATP 10 µM.
Chain of MAPKAPK3 (human) (Q16644 whole entry, looked up): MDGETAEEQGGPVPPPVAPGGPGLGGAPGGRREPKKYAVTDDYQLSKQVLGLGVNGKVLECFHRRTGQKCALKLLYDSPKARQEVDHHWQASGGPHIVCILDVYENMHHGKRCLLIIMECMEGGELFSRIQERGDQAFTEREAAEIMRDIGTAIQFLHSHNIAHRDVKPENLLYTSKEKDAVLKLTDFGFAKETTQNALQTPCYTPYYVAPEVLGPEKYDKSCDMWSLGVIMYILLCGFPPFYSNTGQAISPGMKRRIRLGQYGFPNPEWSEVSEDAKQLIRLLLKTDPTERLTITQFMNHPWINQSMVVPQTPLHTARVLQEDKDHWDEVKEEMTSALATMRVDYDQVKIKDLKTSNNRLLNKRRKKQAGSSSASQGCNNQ
Turning to `Oc1ccc(Nc2nc(-c3ccc(Cl)cc3)cs2)cc1`, the residual activity worked out at 94.1%.
In the case of `O=C1Nc2ccccc2/C1=C1/Nc2ccccc2/C1=N\OCCC(O)CO` (stereo not drawn), the residual activity was 98.9%.
The same measure, in the same setting: under `Nc1nnc2[nH]c3ccccc3nc1-2` stands 101%.

The target of the next assay is SGK3 (human) (UniProt Q96BR1). Described as above. As to conditions: compound 0.5 µM; ATP 10 µM.
With `Oc1ccc(Nc2nc(-c3ccc(Cl)cc3)cs2)cc1`, the residual activity worked out at 98%.
On to `O=C1Nc2ccccc2/C1=C1/Nc2ccccc2/C1=N\OCCC(O)CO` (stereo not drawn), for which the residual activity worked out at 100%.
Same read-out and setting: then `Nc1nnc2[nH]c3ccccc3nc1-2`, with 96.6%.

The target in a further assay is MST4 (human) (UniProt Q9P289). The assay is described as above. As to conditions: compound 0.5 µM; ATP 10 µM.
Chain of MST4 (human) (Q9P289 whole entry, looked up): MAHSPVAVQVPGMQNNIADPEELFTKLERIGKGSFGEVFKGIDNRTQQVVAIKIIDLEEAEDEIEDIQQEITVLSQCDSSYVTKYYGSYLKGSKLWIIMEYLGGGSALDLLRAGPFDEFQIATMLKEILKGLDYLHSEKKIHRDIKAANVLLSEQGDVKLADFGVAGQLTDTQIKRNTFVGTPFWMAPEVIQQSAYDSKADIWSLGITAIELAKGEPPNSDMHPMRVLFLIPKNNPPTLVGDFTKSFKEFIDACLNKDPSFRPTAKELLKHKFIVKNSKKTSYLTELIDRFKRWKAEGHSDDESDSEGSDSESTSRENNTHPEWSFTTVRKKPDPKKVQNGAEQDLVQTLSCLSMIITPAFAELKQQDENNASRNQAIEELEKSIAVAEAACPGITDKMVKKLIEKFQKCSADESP
On to `Oc1ccc(Nc2nc(-c3ccc(Cl)cc3)cs2)cc1`, for which the residual activity worked out at 105%.
Consider `O=C1Nc2ccccc2/C1=C1/Nc2ccccc2/C1=N\OCCC(O)CO` (stereo not drawn), for which the residual activity amounted to 73.1%.
On the same count and under the same terms, then `Nc1nnc2[nH]c3ccccc3nc1-2`, with 91.2%.

The target of the next assay is STK10 (human) (UniProt O94804). The description is as above. The settings on record: compound 0.5 µM; ATP 10 µM.
For `Oc1ccc(Nc2nc(-c3ccc(Cl)cc3)cs2)cc1`, the residual activity was determined as 96.6%.
For the compound `O=C1Nc2ccccc2/C1=C1/Nc2ccccc2/C1=N\OCCC(O)CO` (stereo not drawn), the residual activity came to 52.1%.
On the same count and under the same terms, under `Nc1nnc2[nH]c3ccccc3nc1-2` stands 94.6%.
